The text below walks through data of patent US20260138992A1, “LUR[…] FORM AND METHOD FOR PREPARING SAME” (priority 2022, published 2026).

Data set [1] in a line: Stability test of crystal form I of lurbinectedin (XRPD and HPLC purity after storage). It is filed as physicochemical.
Data set [2] in a line: Observation of electrostatic properties of the crystal forms (glass bottle storage, weighing). The data set is classed as physicochemical. The note with it: for electrostatic effect (sticking to scoop and weighing paper): during the weighing; for wall-hanging phenomenon: stored in a glass bottle.
The nature of data set [3]: Applicant's experimental study of the stability of crystal Form A of CN114940682A. The data set is classed as physicochemical.
For data set [4] the following is noted: during its manipulation; cited from earlier work.
The format of data set [5] is physicochemical. The conditions noted are these: for chemical stability (assessment in words) / physical stability (assessment in words): 10 days under long-term and accelerated conditions; for product purity: after 10 days at 25° C./60% RH and 40° C./75% RH; for purity: sealed and stored at −20° C. for 120 days.
The mark [6] stands for this setting: Group 2, kept in dark, sealed, 2-8° C. for 12 months.
Where [7] appears, read: Group 3, kept in dark, sealed, −20° C. for 20 months.
Setting [8] is: stored at −20° C. in the dark and sealed, and at 2-8° C. in the dark and sealed.
Where [9] appears, read: 10 days under long-term (25° C./60% RH) and accelerated (40° C./75% RH) conditions.
Setting [10] is: Group 6, sealed and stored at −20° C. for 120 days.

Like-named read-outs stand apart in the source and are kept apart here.

On to `COc1ccc2[nH]c3c(c2c1)CCN[C@]31CS[C@@H]2c3c(OC(C)=O)c(C)c4c(c3[C@H](COC1=O)N1[C@@H]2[C@H]2c3c(cc(C)c(OC)c3O)C[C@@H]([C@@H]1O)N2C)OCO4` [crystal form I, lurbinectedin], for which, in data set [1] (Group 1, initial moment), the “Crystal form of lurbinectedin (XRPD)” value is “crystal form I” and the HPLC purity turned out to be 99.91%. Besides, in data set [1] (setting [6]), the “Crystal form of lurbinectedin (XRPD)” value was “crystal form I” and the HPLC purity turned out to be 99.68%. In data set [1] (setting [7]), the “Crystal form of lurbinectedin (XRPD)” value is listed as “crystal form I” and the HPLC purity was determined as 99.65%. Also, the “time the crystal form remains stable” value in data set [1] (stored at 2-8° C. or −20° C.) was “at least 12 months”. In data set [1] (setting [8]), the “crystal form” value was “remained unchanged” and the “product purity” value is given as “above 99%”. In addition, in data set [2], the “electrostatic effect (sticking to scoop and weighing paper)” value (“electrostatic effect” for short) is reported as “do not show electrostatic effect or the effect is not obvious”; the wall-hanging phenomenon entry was “no wall-hanging phenomenon or the phenomenon is not obvious”.

In the case of `COc1ccc2[nH]c3c(c2c1)CCN[C@]31CS[C@@H]2c3c(OC(C)=O)c(C)c4c(c3[C@H](COC1=O)N1[C@@H]2[C@H]2c3c(cc(C)c(OC)c3O)C[C@@H]([C@@H]1O)N2C)OCO4` [crystal Form A, lurbinectedin], the “stability of the crystal form” value in data set [3] (at room temperature, converts into other crystal forms readily) is on record as “highly unstable”; in data set [3] (at −20° C.) it was “stable”.

For the compound `COc1ccc2[nH]c3c(c2c1)CCN[C@]31CS[C@@H]2c3c(OC(C)=O)c(C)c4c(c3[C@H](COC1=O)N1[C@@H]2[C@H]2c3c(cc(C)c(OC)c3O)C[C@@H]([C@@H]1O)N2C)OCO4` [crystal form V, lurbinectedin], in data set [2], the “electrostatic effect” value is “do not show electrostatic effect or the effect is not obvious”; the wall-hanging phenomenon entry is recorded as “no wall-hanging phenomenon or the phenomenon is not obvious”.

On to `COc1ccc2[nH]c3c(c2c1)CCN[C@]31CS[C@@H]2c3c(OC(C)=O)c(C)c4c(c3[C@H](COC1=O)N1[C@@H]2[C@H]2c3c(cc(C)c(OC)c3O)C[C@@H]([C@@H]1O)N2C)OCO4` [Form A, lurbinectedin], for which the static electricity entry in data set [4] is on record as “has static electricity”.

For the compound `COc1ccc2[nH]c3c(c2c1)CCN[C@]31CS[C@@H]2c3c(OC(C)=O)c(C)c4c(c3[C@H](COC1=O)N1[C@@H]2[C@H]2c3c(cc(C)c(OC)c3O)C[C@@H]([C@@H]1O)N2C)OCO4` [crystal form B, lurbinectedin, reference compound], the XRPD crystal form result in data set [5] (setting [9]) is “remained unchanged”; in data set [5] (10 days under long-term (25° C./60% RH) and accelerated (40° C./75% RH) conditions, listed as Crystal form B), “unchanged for 10”; in data set [5] (sealed, −20° C. for 120 days) it was “remained unchanged”; in data set [5] (sealed, −20° C. for 120 days, listed as Crystal form B) it was “unchanged”. Besides, the “chemical stability (assessment in words)” value in data set [5] is reported as “relatively poor”. In addition, the “physical stability (assessment in words)” value in data set [5] is listed as “excellent”. For the same compound, the HPLC purity in data set [5] (Group 1, 0 day) was found to be 99.62%; in data set [5] (Group 2, 25° C./60% RH-5 days), 99.44%; in data set [5] (Group 3, 25° C./60% RH-10 days) it was 99.05%; in data set [5] (Group 4, 40° C./75% RH-5 days) it was 99.13%; in data set [5] (Group 5, 40° C./75% RH-10 days), 99.24%; in data set [5] (setting [10]), 99.60%. Moreover, in data set [5], the “product purity” value is given as “decreased”. Further, in data set [5], the “purity” value was “above 99%”. Besides, in data set [2], the “electrostatic effect” value is recorded as “obvious electrostatic effect”. Besides, the wall-hanging phenomenon entry in data set [2] is reported as “exhibits wall-hanging phenomenon”.

As for `COc1ccc2[nH]c3c(c2c1)CCN[C@]31CS[C@@H]2c3c(OC(C)=O)c(C)c4c(c3[C@H](COC1=O)N1[C@@H]2[C@H]2c3c(cc(C)c(OC)c3O)C[C@@H]([C@@H]1O)N2C)OCO4` [crystal form III, lurbinectedin], the XRPD crystal form entry in data set [5] (setting [9]) is “remained unchanged”; in data set [5] (sealed, −20° C. for 120 days), “remained unchanged”; in data set [5] (sealed, −20° C. for 120 days, listed as Crystal form III), “unchanged”. Besides, the “chemical stability (assessment in words)” value in data set [5] was “excellent”. Also, in data set [5], the “physical stability (assessment in words)” value was “excellent”. The HPLC purity in data set [5] (Group 1, 0 day) was 99.61%; in data set [5] (Group 2, 25° C./60% RH-5 days) it was 99.48%; in data set [5] (Group 3, 25° C./60% RH-10 days) it was 99.42%; in data set [5] (Group 4, 40° C./75% RH-5 days), 99.48%; in data set [5] (Group 5, 40° C./75% RH-10 days) it was 99.37%; in data set [5] (setting [10]), 99.60%. For the same compound, the “product purity” value in data set [5] is given as “above 99%”. The “purity” value in data set [5] was “above 99%”. Further, in data set [2], the “electrostatic effect” value was “do not show electrostatic effect or the effect is not obvious”. In data set [2], the wall-hanging phenomenon result is given as “no wall-hanging phenomenon or the phenomenon is not obvious”.

Turning to `COc1ccc2[nH]c3c(c2c1)CCN[C@]31CS[C@@H]2c3c(OC(C)=O)c(C)c4c(c3[C@H](COC1=O)N1[C@@H]2[C@H]2c3c(cc(C)c(OC)c3O)C[C@@H]([C@@H]1O)N2C)OCO4` [crystal form IV, lurbinectedin], the XRPD crystal form entry in data set [5] (setting [9]) is recorded as “remained unchanged”; in data set [5] (sealed, −20° C. for 120 days), “remained unchanged”; in data set [5] (sealed, −20° C. for 120 days, listed as Crystal form IV) it was “unchanged”. Moreover, the “chemical stability (assessment in words)” value in data set [5] was “excellent”. Further, the “physical stability (assessment in words)” value in data set [5] was “excellent”. In addition, the HPLC purity in data set [5] (Group 1, 0 day) came out at 99.90%; in data set [5] (Group 2, 25° C./60% RH-5 days) it was 99.86%; in data set [5] (Group 3, 25° C./60% RH-10 days) it was 99.74%; in data set [5] (Group 4, 40° C./75% RH-5 days), 99.79%; in data set [5] (Group 5, 40° C./75% RH-10 days) it was 99.78%; in data set [5] (setting [10]), 99.91%. Also, the “product purity” value in data set [5] was “above 99%”. The “purity” value in data set [5] is given as “above 99%”. Besides, the “electrostatic effect” value in data set [2] is given as “do not show electrostatic effect or the effect is not obvious”. In addition, the wall-hanging phenomenon entry in data set [2] is listed as “no wall-hanging phenomenon or the phenomenon is not obvious”.

Turning to `COc1ccc2[nH]c3c(c2c1)CCN[C@]31CS[C@@H]2c3c(OC(C)=O)c(C)c4c(c3[C@H](COC1=O)N1[C@@H]2[C@H]2c3c(cc(C)c(OC)c3O)C[C@@H]([C@@H]1O)N2C)OCO4` [crystal form II, lurbinectedin], the XRPD crystal form result in data set [5] (setting [9]) is on record as “remained unchanged”; in data set [5] (sealed, −20° C. for 120 days) it was “remained unchanged”; in data set [5] (sealed, −20° C. for 120 days, listed as Crystal form II) it was “unchanged”. Further, the “chemical stability (assessment in words)” value in data set [5] is “excellent”. Also, the “physical stability (assessment in words)” value in data set [5] was “excellent”. Moreover, the HPLC purity in data set [5] (Group 1, 0 day) stood at 99.59%; in data set [5] (Group 2, 25° C./60% RH-5 days), 99.40%; in data set [5] (Group 3, 25° C./60% RH-10 days) it was 99.41%; in data set [5] (Group 4, 40° C./75% RH-5 days), 99.41%; in data set [5] (Group 5, 40° C./75% RH-10 days) it was 99.41%; in data set [5] (setting [10]) it was 99.58%. Further, in data set [5], the “product purity” value is on record as “above 99%”. Further, the “purity” value in data set [5] is reported as “above 99%”. Besides, the “electrostatic effect” value in data set [2] is on record as “do not show electrostatic effect or the effect is not obvious”. The wall-hanging phenomenon entry in data set [2] is reported as “no wall-hanging phenomenon or the phenomenon is not obvious”.
